Where two headings read alike, the source gives them in different places.
Experiments:
[1] = molecular target: recombinant human His-tagged Tyk2 pseudokinase domain (His-TVMV-Tyk2, 575-869) (Homo sapiens, UniProt P29597); test: Probe Displacement Assay (HTRF Format); settings: 0.5 nM Tyk2 pseudokinase domain, 1 h room temperature, read-out: Binding IC50
Protocol: To 10 μL 26 nM fluorescein labeled probe plus 0.2 nM anti-6×His-terbium labeled antibody (Medarex, labeled by Cisbio) in assay buffer (20 mM Hepes pH 7.5, 150 mM NaCl, 10 mM MgCl2, 2 mM DTT, 50 μg/mL BSA, and 0.015% Brij 35) was added 10 μL recombinant human His-tagged Tyk2 pseudokinase domain (His-TVMV-Tyk2, 575-869) to a final concentration of 0.5 nM. After 1 h at room temperature, the HTRF signal (ratio of fluorescence intensities at emission wavelengths for fluorescein acceptor at 520 nm and terbium donor at 495 nm) was measured on an Envision Plate Reader. Percent inhibition was calculated by comparison to a control without inhibitor and a control without protein.
Protein Sequence of recombinant His-tagged Tyk2 (575-869): […]

[2] = tested on: IL-23 stimulated Kit225 T cells with STAT-dependent luciferase reporter; test: Kit225 T Cell Assay, IL-23 stimulated STAT-dependent luciferase reporter; format: cell-based, human
Protocol: (§1) Kit225 T cells with a stably-integrated STAT-dependent luciferase reporter were plated in RPMI (Gibco) containing 10% heat-inactivated FBS (Gibco) and 100 U/mL PenStrep (Gibco). The cells were then stimulated with either 20 ng/mL human recombinant IL-23 or 200 U/mL human recombinant IFNα (PBL InterferonSource) for 5-6 hours. Luciferase expression was measured using the STEADY-GLO® Luciferase Assay System (Promega) according to the manufacturer's instructions. Inhibition data were calculated by comparison to no inhibitor control wells for 0% inhibition and non-stimulated control wells for 100% inhibition.

[3] = tested on: IFNα stimulated Kit225 T cells with STAT-dependent luciferase reporter; test: Kit225 T Cell Assay, IFNα stimulated STAT-dependent luciferase reporter; format: cell-based, human
Protocol: as §1

[4] = KIT225, 20 ng/mL human recombinant IL-23, 5-6 hours, luciferase reporter, read-out: IL23 Kit 225 IC50
[5] = KIT225, 200 U/mL human recombinant IFNα, 5-6 hours, luciferase reporter, read-out: IFN[…] Kit 225 IC50

Sequence of recombinant human His-tagged Tyk2 pseudokinase domain (His-TVMV-Tyk2, 575-869) (P29597 with tags, fused parts or gaps): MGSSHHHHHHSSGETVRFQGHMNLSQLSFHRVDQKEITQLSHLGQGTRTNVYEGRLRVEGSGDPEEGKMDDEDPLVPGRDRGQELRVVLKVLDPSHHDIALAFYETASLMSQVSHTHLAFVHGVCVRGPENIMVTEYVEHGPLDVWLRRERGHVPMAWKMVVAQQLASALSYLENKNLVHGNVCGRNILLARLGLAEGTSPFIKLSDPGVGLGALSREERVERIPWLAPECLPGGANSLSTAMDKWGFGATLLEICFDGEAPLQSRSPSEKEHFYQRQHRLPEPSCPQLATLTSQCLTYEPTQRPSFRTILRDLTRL

| Structure (SMILES) | IC50 [1] | IC50 [2, 4] | IC50 [3, 5] | IC50 ([2]; Homo sapiens, KIT225, read-out: IL23 Kit 225 IC50) | IC50 ([3]; Homo sapiens, KIT225, read-out: IFN[…] Kit 225 IC50) |
| --- | --- | --- | --- | --- | --- |
| [2H]C([2H])([2H])NC(=O)c1nnc(Nc2cc(C3CC3)ccn2)cc1Nc1ccccc1P(C)(C)=O [Example 1] | 3.4 nM | 383 nM | 242 nM | – | – |
| [2H]C([2H])([2H])NC(=O)c1nnc(NC(=O)C2CC2)cc1Nc1ccccc1P(C)(C)=O [Example 2] | 7.4 nM | 1800 nM | 3170 nM | – | – |
| [2H]C([2H])([2H])NC(=O)c1nnc(Nc2cc(C)nc(C)n2)cc1Nc1ccccc1P(C)(C)=O [Example 3] | 1.6 nM | 3470 nM | 1560 nM | – | – |
| [2H]C([2H])([2H])NC(=O)c1nnc(Nc2ccc(C3CC3)cn2)cc1Nc1ccccc1P(C)(C)=O [Example 5] | 5.2 nM | 390 nM | 337 nM | – | – |
| [2H]C([2H])([2H])NC(=O)c1nnc(Nc2ccc(N3CCOCC3)cn2)cc1Nc1ccccc1P(C)(C)=O [Example 7] | 13 nM | 1440 nM | 799 nM | – | – |
| [2H]C([2H])([2H])NC(=O)c1nnc(Nc2ccn(C)n2)cc1Nc1ccccc1P(C)(C)=O [Example 8] | 12 nM | 3700 nM | 1760 nM | – | – |
| [2H]C([2H])([2H])NC(=O)c1nnc(NC(=O)C2CC2)cc1Nc1ncccc1P(C)(C)=O [Example 9] | 1.4 nM | 282 nM | 514 nM | – | – |
| [2H]C([2H])([2H])NC(=O)c1nnc(Nc2ccc(OC(F)(F)F)cn2)cc1Nc1ncccc1P(C)(C)=O [Example 13] | 0.43 nM | 44 nM | 22 nM | – | – |
| [2H]C([2H])([2H])NC(=O)c1nnc(Nc2ccccn2)cc1Nc1ncccc1P(C)(C)=O [Example 14] | 0.79 nM | 212 nM | 125 nM | – | – |
| [2H]C([2H])([2H])NC(=O)c1nnc(Nc2ccc(F)cn2)cc1Nc1ncccc1P(C)(C)=O [Example 15] | 0.54 nM | 114 nM | 48 nM | – | – |
| [2H]C([2H])([2H])NC(=O)c1nnc(Nc2ccc(C(C)(C)O)cn2)cc1Nc1ncccc1P(C)(C)=O [Example 16] | 0.29 nM | 1210 nM | 673 nM | – | – |
| [2H]C([2H])([2H])NC(=O)c1nnc(Nc2ccc(C3CC3)cn2)cc1Nc1ncccc1P(C)(C)=O [Example 17] | 0.27 nM | 58 nM | 43 nM | – | – |
| [2H]C([2H])([2H])NC(=O)c1nnc(Nc2cccc(C)n2)cc1Nc1ncccc1P(C)(C)=O [Example 18] | 0.44 nM | 58 nM | 33 nM | – | – |
| [2H]C([2H])([2H])NC(=O)c1nnc(Nc2cccc(F)n2)cc1Nc1ncccc1P(C)(C)=O [Example 22] | 0.037 nM | – | – | 40 nM | 15 nM |
| [2H]C([2H])([2H])NC(=O)c1nnc(Nc2cccc(OC)n2)cc1Nc1ncccc1P(C)(C)=O [Example 24] | 0.97 nM | 84 nM | 33 nM | – | – |
| [2H]C([2H])([2H])NC(=O)c1nnc(Nc2cc(F)ccn2)cc1Nc1ncccc1P(C)(C)=O [Example 25] | 0.58 nM | 132 nM | 90 nM | – | – |
| [2H]C([2H])([2H])NC(=O)c1nnc(NC(=O)C2CC2(C)C)cc1Nc1ncccc1P(C)(C)=O (stereo not drawn) [Example 28] | 17 nM | 6320 nM | 6340 nM | – | – |
| [2H]C([2H])([2H])NC(=O)c1nnc(Nc2ccc(C)c(C)n2)cc1Nc1ncccc1P(C)(C)=O [Example 29] | 0.54 nM | 62 nM | 22.8 nM | – | – |
| [2H]C([2H])([2H])NC(=O)c1nnc(NC(=O)C2CC23CC3)cc1Nc1ncccc1P(C)(C)=O (stereo not drawn) [Example 33] | 2.9 nM | 3720 nM | 1480 nM | – | – |
| [2H]C([2H])([2H])NC(=O)c1nnc(Nc2ccc(C(C)(C)N)cn2)cc1Nc1ncccc1P(C)(C)=O [Example 35] | 1.2 nM | 1770 nM | 2290 nM | – | – |
| [2H]C([2H])([2H])NC(=O)c1nnc(Nc2ccc(Cl)cn2)cc1Nc1ncccc1P(C)(C)=O [Example 37] | 0.38 nM | 52.8 nM | 74 nM | – | – |
| [2H]C([2H])([2H])NC(=O)c1nnc(Nc2ccc(C(F)(F)F)cn2)cc1Nc1ncccc1P(C)(C)=O [Example 39] | 0.34 nM | 59.4 nM | 217 nM | – | – |
| [2H]C([2H])([2H])NC(=O)c1nnc(Nc2cccc(C(F)(F)F)n2)cc1Nc1ncccc1P(C)(C)=O [Example 40] | 0.46 nM | 256 nM | 137 nM | – | – |
| [2H]C([2H])([2H])NC(=O)c1nnc(Nc2ccc(C(O)(C(F)(F)F)C(F)(F)F)cn2)cc1Nc1ncccc1P(C)(C)=O [Example 41] | 0.92 nM | 322 nM | 206 nM | – | – |
| [2H]C([2H])([2H])NC(=O)c1nnc(Nc2ccc(N3CCOCC3)cn2)cc1Nc1ncccc1P(C)(C)=O [Example 42] | 0.62 nM | 298 nM | 266 nM | – | – |

Further molecules by falling IC50 [1], results first:

| IC50 [1] | IC50 [2, 4] | IC50 [3, 5] | Structure (SMILES) | IC50 ([2]; Homo sapiens, KIT225, read-out: IL23 Kit 225 IC50) | IC50 ([3]; Homo sapiens, KIT225, read-out: IFN[…] Kit 225 IC50) |
| --- | --- | --- | --- | --- | --- |
| 13 nM | 12500 nM | 4610 nM | [2H]C([2H])([2H])NC(=O)c1nnc(NC(=O)[C@H]2CC2(C)C)cc1Nc1ncccc1P(C)(C)=O [Example 27] | – | – |
| 10 nM | 2570 nM | 9160 nM | [2H]C([2H])([2H])NC(=O)c1nnc(Nc2ccc(OC)nn2)cc1Nc1ccccc1P(C)(C)=O [Example 4] | – | – |
| 9.8 nM | 817 nM | 4160 nM | [2H]C([2H])([2H])NC(=O)c1nnc(NC(=O)OCC)cc1Nc1ncccc1P(C)(C)=O [Example 19] | – | – |
| 2.2 nM | 3110 nM | 423 nM | [2H]C([2H])([2H])NC(=O)c1nnc(Nc2ccc(C(C)(C)O)cn2)cc1Nc1ccccc1P(C)(C)=O [Example 6] | – | – |
| 2 nM | 1150 nM | 666 nM | [2H]C([2H])([2H])NC(=O)c1nnc(Nc2ccn(C)n2)cc1Nc1ncccc1P(C)(C)=O [Example 23] | – | – |
| 0.86 nM | 1350 nM | 350 nM | [2H]C([2H])([2H])NC(=O)c1nnc(Nc2ccc(C(C)(C)O)c(F)n2)cc1Nc1ncccc1P(C)(C)=O [Example 34] | – | – |
| 0.74 nM | 92 nM | 144 nM | [2H]C([2H])([2H])NC(=O)c1nnc(Nc2cc(C3CC3)ccn2)cc1Nc1ncccc1P(C)(C)=O [Example 12] | – | – |
| 0.62 nM | 19 nM | 50 nM | [2H]C([2H])([2H])NC(=O)c1nnc(Nc2cc(C)ccn2)cc1Nc1ncccc1P(C)(C)=O [Example 21] | – | – |
| 0.58 nM | 67 nM | 50 nM | [2H]C([2H])([2H])NC(=O)c1nnc(Nc2cc(COC)ccn2)cc1Nc1ncccc1P(C)(C)=O [Example 20] | – | – |
| 0.56 nM | 121 nM | 32.3 nM | [2H]C([2H])([2H])NC(=O)c1nnc(Nc2ccc(C)cn2)cc1Nc1ncccc1P(C)(C)=O [Example 30] | – | – |
| 0.54 nM | 45.3 nM | 53.9 nM | [2H]C([2H])([2H])NC(=O)c1nnc(Nc2ccc(F)c(C)n2)cc1Nc1ncccc1P(C)(C)=O [Example 31] | – | – |
| 0.53 nM | 927 nM | 905 nM | [2H]C([2H])([2H])NC(=O)c1nnc(Nc2cc(Cl)c(C(C)(C)O)cn2)cc1Nc1ncccc1P(C)(C)=O [Example 36] | – | – |
